According to publication PMC8102479, “Structural and mechanistic insights into the bifunctional HISN2 enzyme catalyzing the second and third steps of histidine biosynthesis in plants” (Scientific Reports, 2021):

What was measured:
MtHISN2 [1] = biological target: T1, MtHISN2 (Medicago truncatula, UniProt A0A072U2X9); test: ProFAR formation monitored at […] nm; format: biochemical
T1 construct: gene MTR_7g084480; N-truncated at Val49 (chloroplast transit peptide removed), residues 49-283, N-terminal Ser-Asn-Ala linker left, His6-tag cleaved with TEV; E. coli BL21 Gold; both PRA-CH and PRA-PH domains
T1 sequence (A0A072U2X9 entry or part of it): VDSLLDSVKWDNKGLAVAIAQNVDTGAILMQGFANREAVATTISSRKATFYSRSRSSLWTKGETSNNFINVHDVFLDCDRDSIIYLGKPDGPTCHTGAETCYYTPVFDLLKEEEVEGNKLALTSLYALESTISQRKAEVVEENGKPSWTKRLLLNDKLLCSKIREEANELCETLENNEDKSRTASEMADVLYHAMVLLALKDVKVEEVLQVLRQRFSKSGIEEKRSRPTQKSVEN

MtHISN2 [2] = biological target: T2, MtHISN2 (Medicago truncatula, UniProt A0A072U2X9, H143E); test: isothermal titration calorimetry; format: binding
T2 construct: gene MTR_7g084480; N-truncated at Val49 (chloroplast transit peptide removed), residues 49-283, N-terminal Ser-Asn-Ala linker left, His6-tag cleaved with TEV; E. coli BL21 Gold; both PRA-CH and PRA-PH domains
T2 sequence (A0A072U2X9 entry or part of it H143E): as the sequence (A0A072U2X9 entry or part of it) above, with H95E counted along it

MtHISN2 [3] = biological target: T3, MtHISN2 (Medicago truncatula, UniProt A0A072U2X9, T112V); test: isothermal titration calorimetry; format: binding
T3 construct: gene MTR_7g084480; N-truncated at Val49 (chloroplast transit peptide removed), residues 49-283, N-terminal Ser-Asn-Ala linker left, His6-tag cleaved with TEV; E. coli BL21 Gold; both PRA-CH and PRA-PH domains
T3 sequence (A0A072U2X9 entry or part of it T112V): as the sequence (A0A072U2X9 entry or part of it) above, with T64V counted along it
Source text: (§1) isothermal titration calorimetry on MtHISN2 | Four mutants within the PRA-CH domain (K109A, T112V, S113A, and H143E)

MtHISN2 [4] = biological target: T4, MtHISN2 (Medicago truncatula, UniProt A0A072U2X9, K109A); test: isothermal titration calorimetry; format: binding
T4 construct: gene MTR_7g084480; N-truncated at Val49 (chloroplast transit peptide removed), residues 49-283, N-terminal Ser-Asn-Ala linker left, His6-tag cleaved with TEV; E. coli BL21 Gold; both PRA-CH and PRA-PH domains
T4 sequence (A0A072U2X9 entry or part of it K109A): as the sequence (A0A072U2X9 entry or part of it) above, with K61A counted along it
Source text: as §1

MtHISN2 [5] = biological target: T5, MtHISN2 (Medicago truncatula, UniProt A0A072U2X9, S113A); test: isothermal titration calorimetry; format: binding
T5 construct: gene MTR_7g084480; N-truncated at Val49 (chloroplast transit peptide removed), residues 49-283, N-terminal Ser-Asn-Ala linker left, His6-tag cleaved with TEV; E. coli BL21 Gold; both PRA-CH and PRA-PH domains
T5 sequence (A0A072U2X9 entry or part of it S113A): as the sequence (A0A072U2X9 entry or part of it) above, with S65A counted along it
Source text: as §1

MtHISN2 [6] = biological target: T6, MtHISN2 (Medicago truncatula, UniProt A0A072U2X9, R183E); test: isothermal titration calorimetry; format: binding
T6 construct: gene MTR_7g084480; N-truncated at Val49 (chloroplast transit peptide removed), residues 49-283, N-terminal Ser-Asn-Ala linker left, His6-tag cleaved with TEV; E. coli BL21 Gold; both PRA-CH and PRA-PH domains
T6 sequence (A0A072U2X9 entry or part of it R183E): as the sequence (A0A072U2X9 entry or part of it) above, with R135E counted along it
Protocol: (§2) isothermal titration calorimetry on MtHISN2 | three within the PRA-PH domain (R183E, T197V, and Y240T) were tested

MtHISN2 [7] = biological target: T7, MtHISN2 (Medicago truncatula, UniProt A0A072U2X9, Y240T); test: isothermal titration calorimetry; format: binding
T7 construct: gene MTR_7g084480; N-truncated at Val49 (chloroplast transit peptide removed), residues 49-283, N-terminal Ser-Asn-Ala linker left, His6-tag cleaved with TEV; E. coli BL21 Gold; both PRA-CH and PRA-PH domains
T7 sequence (A0A072U2X9 entry or part of it Y240T): as the sequence (A0A072U2X9 entry or part of it) above, with Y192T counted along it
Protocol: as §2

MtHISN2 [8] = biological target: T8, MtHISN2 (Medicago truncatula, UniProt A0A072U2X9, T197V); test: isothermal titration calorimetry; format: binding
T8 construct: gene MTR_7g084480; N-truncated at Val49 (chloroplast transit peptide removed), residues 49-283, N-terminal Ser-Asn-Ala linker left, His6-tag cleaved with TEV; E. coli BL21 Gold; both PRA-CH and PRA-PH domains
T8 sequence (A0A072U2X9 entry or part of it T197V): as the sequence (A0A072U2X9 entry or part of it) above, with T149V counted along it
Protocol: as §2

MtHISN2 [9] = biological target: T1, MtHISN2; test: isothermal titration calorimetry; format: binding
[10] = biological target: HISN2 enzyme from Medicago truncatula (MtHISN2), construct N-truncated at Val49 (Medicago truncatula); test: SEC; HiLoad Superdex 200 16/60; 25 mM Hepes-NaOH pH 7.5, 100 mM KCl, 50 mM NaCl, 100 uM ZnCl2, 1 mM TCEP; elution profile not shown

Row | inhibition at 100 µM (MtHISN2 [1]) | Kd (MtHISN2 [2]) | Kd (MtHISN2 [3]) | Kd (MtHISN2 [4]) | Kd (MtHISN2 [5]) | Kd (MtHISN2 [6]) | Kd (MtHISN2 [7]) | Kd (MtHISN2 [8]) | Kd (MtHISN2 [9]) | stoichiometry N [10] | Compound
1 | > 60% | 68 µM | 75 ± 8 µM | 71 ± 18 µM | 64 ± 12 µM | 31 ± 3 µM | 52 ± 9 µM | 29 ± 3 µM | 47 ± 6 µM | – | Nc1ncnc2c1ncn2[C@@H]1O[C@H](COP(=O)(O)O)[C@@H](O)[C@H]1O [AMP]
2 | – | – | – | – | – | – | – | – | – | 2 | HISN2 enzyme from Medicago truncatula (MtHISN2), construct N-truncated at Val49
